Measurements published in US4604406A, “N-[6-methoxy-5-(perfluoroalkyl)-1-naphtholyl]-N-methylglycines and their thionaphthoyl analogs” (Ayerst, McKenna & Harrison, Inc., priority 1984, dated 1986).

What was measured:
[1] = tested on: dulcitol accumulation in the diaphragm; experiment: % lowering dulcitol accumulation in vivo, diaphragm (D), galactosemic rats; design: species or system rat (Sprague-Dawley); details: 4 days
Description: (§1) Such experiments are exemplified hereinbelow after the listing of the following general comments pertaining to these experiments:
(§2) (a) Four or more groups of six male rates, 50-70 g, Sprague-Dawley strain, were used. The first group, the control group, was fed a mixture of laboratory chow (rodent laboratory chow, Purina) and glucose at 20% (w/w %) concentration. The untreated galactosemic group was fed a similar diet in which galactose is substituted for glucose. The third group was fed a diet prepared by mixing a given amount of the test compound with the galactose containing diet. The concentration of galactose in the diet of the treated groups was the same as that for the untreated galactosemic group.
(§3) Only two minor reagent changes were made: (a) The rinsing mixture was an aqueous 5% (w/v) trichloroacetic acid solution and (b) the stock solution was prepared by dissolving 25 mg of dulcitol in 100 ml of an aqueous trichloroacetic acid solution. [N.B.: For each experiment the average value found in the tissue from rats fed the glucose diet was subtracted from the individual values found in the corresponding rat tissue to obtain the amount of polyol accumulated.]
(§4) The figures under L, N and D represent the percentage decrease of dulcitol accumulation in the tissues of the lens, sciatic nerve and diaphragm, respectively, for treated rats as compares to untreated rats.

[2] = target: aldose reductase (Homo sapiens, UniProt P15121); details: literature report; cited from earlier work
[3] = tested on: dulcitol accumulation in the lens; experiment: % lowering dulcitol accumulation in vivo, lens (L), galactosemic rats; design: species or system rat (Sprague-Dawley); details: 4 days
Description: as §1, §2
(§5) (b) After four days, the animals were killed by decapitation. The eyeballs were removed and punctured with a razor blade; the freed lenses were rolled gently on filter paper and weighed. The sciatic nerves were dissected as completely as possible and weighed. Both tissues were frozen and can be kept up to two weeks before being analyzed for dulcitol.
as §3, §4

[4] = target: aldose reductase (Bos taurus, UniProt P16116); experiment: % inhibition in vitro at 10^-7 M (aldose reductase inhibition); type: biochemical
[5] = tested on: dulcitol accumulation; experiment: galactosemic rats, dulcitol accumulation, overall comparison in words; type: in vivo, rat (Sprague-Dawley)
Description: The aldose reductase inhibiting property of the compounds of this invention and the utilization of the compounds in preventing, diminishing and alleviating diabetic complications are demonstrable in experiments using galactosemic rats, see Dvornik et at., cited above. Such experiments are exemplified hereinbelow after the listing of the following general comments pertaining to these experiments:
as §2, §5
as §3, with “(c) The polyol determination was performed by a modification of the procedure of M. Kraml and L. Cosyns, Clin. Biochem., 2,373 (1969). Only” for “Only”
as §4

[6] = 24.5 mg/kg/day in galactose diet

## COc1ccc2c(C(=S)N(C)CC(=O)O)cccc2c1C(F)(F)F [Compound 7, N--[[5-(Trifluoromethyl)-6-methoxy-1-naphthalenyl]thioxomethyl]-N--methylglycine, reference compound]
[1]; 11 mg/kg/day in galactose diet
  % lowering dulcitol accumulation in vivo, D: 89%

## O=C(O)CN1C(=O)c2cccc3cccc(c23)C1=O [1,3-Dioxo-1H-benz[de]isoquinoline-2(3H)-acetic acid]
[2]
  inhibition of aldose reductase: effective inhibitor of aldose reductase

## COc1ccc2c(C(=S)N(C)CC(=O)O)cccc2c1C(F)(F)C(F)(F)C(F)(F)F [Compound 3, N-[[5-(heptafluoropropyl)-6-methoxy-1-naphthalenyl]thioxomethyl]-N-methylglycine]
[3]; 5 mg/kg/day in galactose diet
  % lowering dulcitol accumulation in vivo, L: 20%
[4]
  inhibition at 0.1 µM: 75%
[5]; 5 mg/kg/day
  activity compared with tolrestat at 4 mg/kg/day: superior to tolrestat
  activity compared with tolrestat at 11 mg/kg/day: approaches the activity of tolrestat
[5]; about twice as active as tolrestat
  activity relative to tolrestat: about twice
[1]; 5 mg/kg/day in galactose diet
  % lowering dulcitol accumulation in vivo, D: 76%

## O=C1NC(=O)[C@@]2(CCOc3ccc(F)cc32)N1 [sorbinol, (S)-6-Fluoro-2,3-dihydrospiro(4H-1-benzopyran-4,4'-imidazolidine)-2',5'-dione]
[2]
  inhibition of aldose reductase: aldose reductase inhibiting properties

## COc1ccc2c(C(=O)N(C)CC(=O)O)cccc2c1C(F)(F)C(F)(F)F [Compound 2, N-[[6-Methoxy-5-(pentafluoroethyl)-1-naphthalenyl]carbonyl]-N-methylglycine]
[4]
  inhibition at 0.1 µM: 56%
[1]; 29 mg/kg/day in galactose diet
  % lowering dulcitol accumulation in vivo, D: 68%

## COc1ccc2c(C(=S)N(C)CC(=O)O)cccc2c1C(F)(F)C(F)(F)F [Compound 1, N-[[6-methoxy-5-(pentafluoroethyl)-1-naphthalenyl]thioxomethyl]-N-methylglycine]
[3]; [6]
  % lowering dulcitol accumulation in vivo, L: 29%
[4]
  inhibition at 0.1 µM: 71%
[1]; [6]
  % lowering dulcitol accumulation in vivo, D: 93%

## COc1ccc2c(C(=O)N(C)CC(=O)O)cccc2c1C(F)(F)F [Compound 8, N--[ [5-(Trifluoromethyl)-6-methoxy-1-naphthalenyl]carbonyl]-N--methylglycine, reference compound]
[3]; 10 mg/kg/day in galactose diet
  % lowering dulcitol accumulation in vivo, L: 0%
[4]
  inhibition at 0.1 µM: 57%
[1]; 10 mg/kg/day in galactose diet
  % lowering dulcitol accumulation in vivo, D: 20%

## COc1ccc2c(C(=O)N(C)CC(=O)O)cccc2c1C(F)(F)C(F)(F)C(F)(F)C(F)(F)C(F)(F)C(F)(F)F [Compound 6, N--[[5-(Tridecafluorohexyl)-6-methoxy-1-naphthalenyl]carbonyl]-N--methylglycine]
[3]; 25 mg/kg/day in galactose diet
  % lowering dulcitol accumulation in vivo, L: 0%
[4]
  inhibition at 0.1 µM: 47%
[1]; 25 mg/kg/day in galactose diet
  % lowering dulcitol accumulation in vivo, D: 0%

## COc1ccc2c(C(=O)N(C)CC(=O)O)cccc2c1C(F)(F)C(F)(F)C(F)(F)F [Compound 4, N-[[5-(heptafluoropropyl)-6-methoxy-1-naphthalenyl]carbonyl]-N-methylglycine]
[3]; 10 mg/kg/day in galactose diet
  % lowering dulcitol accumulation in vivo, L: 19%
[4]
  inhibition at 0.1 µM: 63%
[5]; 10 mg/kg/day
  activity compared with compound No. 7 (tolrestat) at 11 mg/kg/day: comparable results
[1]; 10 mg/kg/day in galactose diet
  % lowering dulcitol accumulation in vivo, D: 38%

## COc1ccc2c(C(=S)N(C)CC(=O)O)cccc2c1C(F)(F)C(F)(F)C(F)(F)C(F)(F)C(F)(F)C(F)(F)F [Compound 5, N-[[6-Methoxy-5-(tridecafluorohexyl)-1-naphthalenyl]thioxomethyl]-N-methylglycine]
[3]; 26 mg/kg/day in galactose diet
  % lowering dulcitol accumulation in vivo, L: 0%
[4]
  inhibition at 0.1 µM: 40%
[1]; 26 mg/kg/day in galactose diet
  % lowering dulcitol accumulation in vivo, D: 51%
